Experimental findings from patent US20060135769A1, “Farnesyl transferase inhibiting 4-heterocyclyl-quinoline and quinazoline derivatives” (priority 2000, published 2006) are described below.

A word on the melting point: it is the temperature of the solid-liquid transition.

A value given as a limit tells only on which side of the number the result lay.

With `O=c1cc(-n2ccnc2)c2cc(C(c3ccc(Cl)cc3)n3ccnc3)ccc2[nH]1` (centres unmarked) [Example B1, 6-[(4-chlorophenyl)-1H-imidazol-1-ylmethyl]-4-(1H-imidazol-1-yl)-2(1H)-quinolinone], the melting point was 242.3 °C.
In turn, `Cn1cncc1C(O)(c1ccc(Cl)cc1)c1ccc2c(c1)c(-c1cccs1)cc(=O)n2C` (centres unmarked) [Example B2, 6-[(4-chlorophenyl)hydroxy(1-methyl-1H-imidazol-5-yl)methyl]-1-methyl-4-(2-thienyl)-2(1H)-quinolinone] had a melting point above 260 °C.
Then `Cn1cncc1C(O)(c1ccc(Cl)cc1)c1ccc2[nH]c(=O)cc(-c3cccnc3)c2c1` (centres unmarked) [Example B3, 6-[(4-chlorophenyl)hydroxy(1-methyl-1H-imidazol-5-yl)methyl]-4-(3-pyridinyl)-2(1H)-quinolinone], with above 250 °C; and `Cn1cncc1C(O)(c1ccc(Cl)cc1)c1ccc2c(c1)c(-c1nc(-c3ccccc3)cs1)cc(=O)n2C` (centres unmarked) [Example B4, 6-[(4-chlorophenyl)hydroxy(1-methyl-1H-imidazol-5-yl)methyl]-1-methyl-4-(4-phenyl-2-thiazolyl)-2(1H)-quinolinone], with 200 °C; and `Cn1cncc1C(c1ccc(Cl)cc1)c1ccc2c(c1)c(-c1nc(-c3ccccc3)cs1)cc(=O)n2C` (centres unmarked) [Example B6, 6-[(4-chlorophenyl)(1-methyl-1H-imidazol-5-yl)methyl]-1-methyl-4-(4-phenyl-2-thiazolyl)-2(1H)-quinolinone], with 171 °C.
Then `Cn1cncc1C(N)(c1ccc(Cl)cc1)c1ccc2c(c1)c(-c1nc(-c3ccccc3)cs1)cc(=O)n2C` (centres unmarked) [Example B7, 6-[amino(4-chlorophenyl)(1-methyl-1H-imidazol-5-yl)methyl]-1-methyl-4-(4-phenyl-2-thiazolyl)-2(1H)-quinolinone], with 237 °C.
Compound `CC(=O)NC(c1ccc(Cl)cc1)(c1ccc2c(c1)c(-c1nc(-c3ccccc3)cs1)cc(=O)n2C)c1cncn1C` (centres unmarked) [Example B8, N-[(4-chlorophenyl)[1,2-dihydro-1-methyl-2-oxo-4-(4-phenyl-2-thiazolyl)-6-quinolinyl](1-methyl-1H-imidazol-5-yl)methyl]-acetamide] yielded a melting point of 244 °C.
For the compound `Cn1c(=O)cc(-c2nc(-c3ccccc3)cs2)c2cc(C(c3ccc(Cl)cc3)c3cnc(-c4ccccc4)[nH]3)ccc21` (centres unmarked) [Example B9 (F2), 6-[(4-chlorophenyl)(2-phenyl-1H-imidazol-5-yl)methyl]-1-methyl-4-(4-phenyl-2-thiazolyl)-2(1H)-quinolinone], the melting point amounted to 190 °C.
Then `Cn1cncc1C(O)(c1ccc(Cl)cc1)c1ccc2c(c1)c(CCc1ccc(Cl)s1)cc(=O)n2C` (centres unmarked) [Example B10, 6-[(4-chlorophenyl)hydroxy(1-methyl-1H-imidazol-5-yl)methyl]-4-[2-(5-chloro-2-thienyl)ethyl]-1-methyl-2(1H)-quinolinone], with 128 °C; and `Cn1c(=O)cc(CCc2ccc(Cl)s2)c2cc(C(O)(c3ccc(Cl)cc3)c3cccnc3)ccc21` (centres unmarked) [Example B13, 6-[(4-chlorophenyl)hydroxy-3-pyridinylmethyl]-4-[2-(5-chloro-2-thienyl)ethyl]-1-methyl-2(1H)-quinolinone], with 110 °C; and `Cn1c(=O)cc(CCc2ccc(Cl)s2)c2cc(C(N)(c3ccc(Cl)cc3)c3cccnc3)ccc21` (centres unmarked) [Example B14, 6-[amino(4-chlorophenyl)-3-pyridinylmethyl]-4-[2-(5-chloro-2-thienyl)ethyl]-1-methyl-2(1H)-quinolinone], with 100 °C.
